Results from patent EP4548971A1, “1,4-BENZOTHIAZEPINES AND RELATED COMPOUNDS WITH CYCLOPROPANOL GROUPS AS MULTI-TARGETED DRUGS” (Georg-August-Universität Göttingen Stiftung Öffentlichen …, priority 2023, dated 2025).
Entries after “also recorded” stand apart in the source; their conditions may differ.

Legend:
HL-1 cardiac cells = assay: CytoTox-Glo cytotoxicity assay (cell viability); type: cell-based; settings: CytoTox-Glo assay in 100 µM solutions after 24 h incubation
Protocol: Cell viability was assessed using CytoTox-Glo™ Cytotoxicity Assay according to the manufacturing procedure (Promega GmbH). Briefly, HL-1 cardiac cells were cultivated for 24 h in black-walled, clear-bottom 96-well micro-plates (Corning) covered with fibronectin in DMEM, containing different concentrations of the tested compound (10,000 cells/well). Luminescence of a luminogenic peptide substrate was measured before and after addition of the lysis reagent (digitonin). The viable cell contribution was determined by a subtractive method. 0.1% DMSO treated cell were taken as a control.
The membrane permeability of the derivatives was determined using cell-free transport models (PermeaPad®, innoME GmbH), and permeability rates (Pe), which are a measure of how fast a compound can cross a membrane, were established (Table 1).

SERCA2 = target: T1, SERCA2 (Homo sapiens, UniProt P16615); assay: NADH-coupled ATPase assay on microsomal membrane vesicles from HEK-293T cells (HEK-293 ER); type: biochemical; set-up: key to SERCA2a HEK ER effect class: +++: a strong effect, comparable to or greater than that of a known compounds at a given concentration (25 µM in RyR2 R-CEPIA1er assay, 10 µM in caffeine assay and on microsomal membrane vesicles); ++: moderate effect; +: observable effect; -: no effect; settings: for SERCA2a HEK ER effect class: 10 µM on microsomal membrane vesicles; for effect on SERCA2 ATPase activity, in words: microsomes from HEK-293 ER, 10 µM (1 µM for 14b), vs. 0.1 % DMSO
T1 construct: endogenous in cells; host or cells: HEK-293T cells, microsomal membrane vesicles
T1 sequence (P16615 whole entry): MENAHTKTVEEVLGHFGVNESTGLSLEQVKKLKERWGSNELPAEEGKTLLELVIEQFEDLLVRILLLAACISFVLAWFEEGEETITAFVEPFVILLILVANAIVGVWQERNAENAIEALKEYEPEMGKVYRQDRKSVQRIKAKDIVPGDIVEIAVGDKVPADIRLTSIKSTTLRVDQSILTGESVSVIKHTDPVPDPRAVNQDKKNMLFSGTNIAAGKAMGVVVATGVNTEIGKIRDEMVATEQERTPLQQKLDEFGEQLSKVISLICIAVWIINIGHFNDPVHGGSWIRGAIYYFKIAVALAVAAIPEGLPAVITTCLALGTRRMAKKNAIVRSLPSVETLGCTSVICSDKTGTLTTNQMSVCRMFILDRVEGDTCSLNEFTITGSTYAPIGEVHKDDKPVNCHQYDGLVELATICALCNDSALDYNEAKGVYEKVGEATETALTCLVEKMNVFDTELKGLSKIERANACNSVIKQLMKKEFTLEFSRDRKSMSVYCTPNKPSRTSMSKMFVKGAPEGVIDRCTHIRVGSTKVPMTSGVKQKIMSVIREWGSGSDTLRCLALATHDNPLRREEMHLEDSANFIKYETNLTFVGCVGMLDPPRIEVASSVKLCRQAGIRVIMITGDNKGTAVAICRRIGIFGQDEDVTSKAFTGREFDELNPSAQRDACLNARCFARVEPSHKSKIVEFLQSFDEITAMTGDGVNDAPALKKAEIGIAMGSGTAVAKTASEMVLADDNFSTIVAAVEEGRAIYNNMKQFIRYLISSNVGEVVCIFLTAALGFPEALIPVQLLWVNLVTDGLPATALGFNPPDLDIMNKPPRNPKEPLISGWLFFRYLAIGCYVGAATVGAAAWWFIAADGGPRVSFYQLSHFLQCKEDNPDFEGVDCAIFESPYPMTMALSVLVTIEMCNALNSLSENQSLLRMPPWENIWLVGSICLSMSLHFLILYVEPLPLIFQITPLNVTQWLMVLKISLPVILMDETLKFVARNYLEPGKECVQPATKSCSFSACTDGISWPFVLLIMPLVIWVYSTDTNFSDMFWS
Protocol: Isolation of microsomal membrane vesicles from HEK-293T cells (HEK-293 ER) was performed according to Stewart et al.^61 HEK-293T cells were harvested with Trypsin/EDTA, washed twice with ice-cold PBS containing protease inhibitor cocktail (cOmplete™, Roche, Mannheim, Germany) and centrifuged 800 × g for 5 min. The pellet was resuspended in ice-cold lysis buffer (1 mM EDTA, 10 mM HEPES, cOmplete, pH 7.4) and incubated on ice for 20 minutes. After the cells were homogenized with a tight fitting Dounce homogenizer (10-20 strokes), an equal volume of restoration buffer (500 mM sucrose, 10 mM HEPES, cOmplete, pH 7.2) was added and the cells were homogenized again (10-20 strokes). The homogenate was centrifuged at 10000 × g for 20 min at 4° C. The supernatant was collected and centrifuged again for another 2 hours (100000 × g at 4° C). Then the pellet was carefully resuspended in resuspension buffer (250 mM sucrose, 10 mM HEPES, cOmplete, pH 7.2) on ice by pipetting the solution up and down until fully dissolved. The obtained solution was diluted to a protein concentration of 15-20 µg/µl with the resuspension buffer, the aliquots were snap frozen in liquid nitrogen and stored at - 80 °C until usage.
To determine whether new compounds could increase the SERCA2a activity, HEK-293 microsomes (40 - 150 µg of total protein) or mouse ventricular microsomes (1 - 20 µg of total protein) were diluted in 100 µl of the assay buffer used for measurement of SERCA activity (described below) and incubated at room temperature for 5 minutes prior to the experiments. The measurements of SERCA2a activity were made at 28 °C by using a NADH -coupled ATPase assay. Briefly, the assay buffer contained 60 mM MOPS, 120 mM KCI, 6 mM MgCl2, 1 mM EGTA, 5 mM NaN3, 0.5 mM phosphoenolpyruvate and 1.5 mM CaCl2, pH 7.0. Before the reaction was started by the injection of […] ATP (resulting in 2 mM final concentration in the well), 5 units/mL of both lactate dehydrogenase and pyruvate kinase, 0.5 mM NADH, and 1 µM Ca^2+ ionophore A-23187 (Sigma, C-7522) were added to the diluted sample with or without the tested compound. The 1.5 mM Ca/EGTA buffer has a free Ca^2+ concentration of about 200 µM. The NADH fluorescence decrease was recorded each 2 s for 10 min course on a multiwell plate reader TECAN Spark 20M in 96-well glass bottom plates (MatTek Corporation; Cat. No. PBK96G-1.5-5-F). Fluorescence was evoked by 380 nm excitation wavelength and collected in a bottom-read mode at 425 nm. Exposure - 30 flashes, excitation bandwidth - 10 nm, emission bandwidth - 10 nm. ATP was injected at 30 s. […] The data were analyzed with computer software GraphPad Prism version 8.3.1 (GraphPad Software, Inc.). The difference in signal decrease with and without microsomes was taken as an indicator for the additional ATPase activity performed by SERCA2a. The obtained values for maximal SERCA2a activity were normalized for total protein concentration. Maximal SERCA2a activity values are reported as percentages of control (0.1% DMSO) values. Microsomal samples that were kept on ice until usage and set to 100%.
In an NADH assay, the change in NADH coenzyme fluorescence reflects the level of the consumption of ATP, which can be taken as an indicator of SERCA2 activity [G. B. Warren, P. A. Toon, N. J. Birdsall, A. G. Lee, J. C. Metcalfe, Reconstitution of a calcium pump using defined membrane components. Proc. Natl. Acad. Sci. U.S.A. 1974, 71, 622 - 626]. ATP hydrolysis by SERCA2 is required to pump calcium ions into the SER. A higher rate of ATP hydrolysis corresponds to enhanced SERCA2 ATPase activity that leads to a greater pumping of calcium ions into the SR.
The rate of NADH oxidation, which is coupled to ATP hydrolysis, was observed by measuring changes in NADH intrinsic fluorescence over time after ATP injection into microsomal membranes enriched in SER vesicles isolated from mouse heart ventricles (mouse SER) and ER vesicles from HEK-293T cells (HEK-293 ER). […]

SMILES	Viability (HL-1 cardiac cells) [%]	SERCA2a HEK ER effect class (SERCA2)	effect on SERCA2 ATPase activity, in words (SERCA2)	EC50 (SERCA2; ATPase activity, range after the semicolon is not explained, read-out: SERCA2a HEK ER (EC50)) [nM]
COc1ccc2c(c1)CN(Cc1ccc(C(=O)O)cc1)CCS2 [ARM210, reference compound]	90	+	significant activation of SERCA2 ATPase	
COc1ccc2c(c1)CN(CCCCNCCCCC1(O)CC1)CCS2 [Compound 13a, 1-(4-((4-(7-Methoxy-2,3-dihydrobenzo[1,4-f]-thiazepin-4(5H)-yl)butyl)amino)butyl)cyclopropan-1-ol]	84	-	did not evoke significant increase in ATPase activity; also recorded: could not detect SERCA2 activation	
COc1ccc(OCCCNCCCCC2(O)CC2)cc1 [Compound 13b, 1-(4-((3-(4-methoxyphenoxy)propyl)amino)butyl)cyclopropan-1-ol]	100	-		
COc1ccc(SCCCNCCCCC2(O)CC2)cc1 [Compound 13c, 1-(4-((3-((4-Methoxyphenyl)thio)propyl)amino)butyl)cyclopropan-1-ol]	73	+	significant activation of SERCA2 ATPase	
COc1ccc2c(c1)CN(CCCCC1(O)CC1)CCS2 [Compound 13d, 1-(4-(7-methoxy-2,3-dihydrobenzo[1,4-f]thiazepin-4(5H)-yl)butyl)cyclopropan-1-ol]	95	+	significant activation of SERCA2 ATPase; also recorded: slight	
COc1ccc2c(c1)CN(CCCCN(CCCCC1(O)CC1)CCCCC1(O)CC1)CCS2 [Compound 14a, 1,1'-(((4-(7-Methoxy-2,3-dihydrobenzo[1,4-f]thiazepin-4(5H)-yl)butyl)azanediyl)bis(butane-4,1-diyl))bis(cyclopropan-1-ol)]	80	++		16
COc1ccc(SCCCN(CCCCC2(O)CC2)CCCCC2(O)CC2)cc1 [Compound 14c, 1,1'-(((3-((4-Methoxyphenyl)thio)propyl)azanediyl)bis(butane-4,1-diyl))bis(cyclopropan-1-ol)]	90	+		
COc1ccc2c(c1)CN(C(=O)C(=O)O)CCS2 [Compound S36, reference compound]	94			
